Test results published in the supplement of paper PMC11781733.
Where a name gives a salt, the structure may show the parent alone.

What was measured:
Details in all cases: exposure time: 15 min to 3 h acute
Dugesia japonica [1] = experiment: C-shape incidence (% planarians (vehicle-normalised)); higher = higher incidence or increase relative to vehicle control
Method in brief: (§1)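 A blinded researcher manually scored planarian body shapes (contraction, C-shape, corkscrew, hyperkinesis), leaving out any worm that crawled out of its well. The D. japonica worms had been fasted 5–7 days, kept one per well in 200 μL in sealed 48-well plates, and screened within 15 minutes–3 hours of exposure to at least 5 concentrations. Values give shape incidence ×100, normalised to vehicle controls in the same plate, with negatives set to 0.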

Dugesia japonica [2] = experiment: loss of phototaxis incidence (% planarians (vehicle-normalised)); higher = higher incidence or increase relative to vehicle control
Method in brief: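 Automated object tracking was used to score intact, fasted Dugesia japonica for loss of phototaxis as a yes/no outcome. Worms sat one per well in 200 μL on 48-well plates and were tested 15 min to 3 h after exposure in 0.5% DMSO or water vehicle. The incidence rate ×100 was normalised to in-plate vehicle controls, negatives were set to 0, and worms that crawled out were left out.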

Dugesia japonica [3] = experiment: crawl-out incidence (% planarians); higher = higher incidence or increase relative to vehicle control
Dugesia japonica [4] = experiment: noxious heat displacement strength vs vehicle (% change vs vehicle); higher = higher incidence or increase relative to vehicle control
Method in brief: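 Displacement strength under noxious heat was measured in the scrunching assay on intact, fasted Dugesia japonica, one per well of a 48-well plate in 200 μL. Worms were tested 15 min to 3 h after exposure in 0.5% DMSO or water vehicle, using automated object tracking. Eight worms per concentration per plate were run in technical triplicate (n = 24). Each worm was normalised to the plate's vehicle median, and the value is the median percent change; worms that crawled out were excluded.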

Dugesia japonica [5] = experiment: any abnormal body shape incidence (% planarians (vehicle-normalised)); higher = higher incidence or increase relative to vehicle control
Method in brief: as §1

Dugesia japonica [6] = experiment: resting fraction in blue light vs vehicle (difference in fraction x100 vs vehicle); higher = higher incidence or increase relative to vehicle control
Method in brief: (§2)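 Automated tracking of intact, fasted Dugesia japonica, one worm per well of a 48-well plate in 200 μL, was used to measure the resting fraction in the dark or under blue light. Testing took place 15 min to 3 h after exposure in 0.5% DMSO or water vehicle. Each plate held eight worms per concentration, run in technical triplicate. For each worm, the plate's vehicle median was subtracted and the difference multiplied by 100; the median of these values is reported, with worms that crawled out excluded.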

Dugesia japonica [7] = experiment: contracted body shape incidence (% planarians (vehicle-normalised)); higher = higher incidence or increase relative to vehicle control
Method in brief: as §1

Dugesia japonica [8] = experiment: speed in dark vs vehicle (% change vs vehicle); higher = higher incidence or increase relative to vehicle control
Method in brief: (§3)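 Automated tracking recorded crawling speed of intact, fasted Dugesia japonica in the dark or under blue light, and values are reported as the median percent change relative to the plate's vehicle median. Worms sat singly in wells of a 48-well plate in 200 μL and were tested 15 min to 3 h after exposure in 0.5% DMSO or water vehicle. Worms that crawled out were left out, with eight per concentration per plate in technical triplicate (n = 24).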

Dugesia japonica [9] = experiment: loss of heat-induced scrunching incidence (% planarians (vehicle-normalised)); higher = higher incidence or increase relative to vehicle control
Method in brief: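 D. japonica planarians (fasted 5–7 days), one per well in 200 μL in sealed 48-well plates, were exposed to at least 5 concentrations (n = 24 per concentration, technical triplicates). They were tested within 15 minutes–3 hours for scrunching in response to a noxious heat stimulus; worms that crawled out were excluded. The value is the incidence ×100 of worms without scrunching, normalised to in-plate vehicle controls, with negatives set to 0.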

Dugesia japonica [10] = experiment: pharynx extrusion incidence (% planarians (vehicle-normalised)); higher = higher incidence or increase relative to vehicle control
Method in brief: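 Blind manual scoring of pharynx extrusion, treated as a body-shape category, was done on intact, fasted Dugesia japonica. Worms sat singly in 200 μL per well of a 48-well plate, in water or 0.5% DMSO vehicle, and were tested between 15 min and 3 h after exposure. Eight worms per concentration per plate were run in technical triplicate (n = 24), and any that crawled out were excluded. The incidence was normalised to in-plate vehicle controls, with negatives set to 0.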

Dugesia japonica [11] = experiment: speed first 30 s blue light vs vehicle (% change vs vehicle); higher = higher incidence or increase relative to vehicle control
Method in brief: as §3

Dugesia japonica [12] = experiment: corkscrew incidence (% planarians (vehicle-normalised)); higher = higher incidence or increase relative to vehicle control
Method in brief: as §1

Dugesia japonica [13] = experiment: stickiness incidence (% planarians (vehicle-normalised)); higher = higher incidence or increase relative to vehicle control
Method in brief: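 Fasted Dugesia japonica planarians, one per well of a sealed 48-well plate in 200 μL solution, were tested 15 min–3 h after exposure to half- or quarter-log concentration series. The vehicle was 0.5% DMSO or water. Stickiness was scored as a binary endpoint in the Stickiness assay, pooling technical triplicates (n = 24). Incidence was normalised to in-plate vehicle incidence, with negatives set to 0, and multiplied by 100. Crawled-out worms were excluded.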

Dugesia japonica [14] = experiment: anxiety (time in outer well region) vs vehicle (% change vs vehicle); higher = higher incidence or increase relative to vehicle control
Method in brief: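 D. japonica planarians (fasted 5–7 days), one per well in 200 μL in sealed 48-well plates, were exposed to at least 5 concentrations (n = 24 per concentration, technical triplicates) and screened within 15 minutes–3 hours. Time spent in the outer portion of the well was measured by object tracking in MATLAB or Python; worms that crawled out were excluded. Each worm's response was divided by, or reduced by, the plate vehicle median and multiplied by 100. The value is the median.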

Dugesia japonica [15] = experiment: hyperkinesis incidence (% planarians (vehicle-normalised)); higher = higher incidence or increase relative to vehicle control
Method in brief: as §1

Dugesia japonica [16] = experiment: resting fraction in dark vs vehicle (difference in fraction x100 vs vehicle); higher = higher incidence or increase relative to vehicle control
Method in brief: as §2

Dugesia japonica [17] = experiment: speed second 30 s blue light vs vehicle (% change vs vehicle); higher = higher incidence or increase relative to vehicle control
Method in brief: as §3

Dugesia japonica [18] = experiment: total locomotor bursts minus vehicle (bursts difference vs vehicle); higher = higher incidence or increase relative to vehicle control
Method in brief: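 Fasted Dugesia japonica planarians were placed one per well in a sealed 48-well plate with 200 μL solution and exposed to half- or quarter-log concentration series, with 0.5% DMSO or water as vehicle. Testing took place 15 min–3 h after exposure, with technical triplicates totalling n = 24. Total locomotor bursts, an unstimulated behaviour, were scored by image-based object tracking, and the plate vehicle-control median was subtracted from each planarian's value without scaling. The reported value is the median normalised response, excluding worms that crawled out.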

Row | Structure (SMILES) | C-shape incidence (Dugesia japonica [1]) | loss of phototaxis incidence (Dugesia japonica [2]) | crawl-out incidence (Dugesia japonica [3]) | noxious heat displacement strength (Dugesia japonica [4]) | any abnormal body shape incidence (Dugesia japonica [5]) | resting fraction in blue light (Dugesia japonica [6]) | contracted body shape incidence (Dugesia japonica [7]) | speed in dark (Dugesia japonica [8]) | loss of heat-induced scrunching incidence (Dugesia japonica [9]) | pharynx extrusion incidence (Dugesia japonica [10]) | speed first 30 s blue light (Dugesia japonica [11]) | corkscrew incidence (Dugesia japonica [12]) | stickiness incidence (Dugesia japonica [13]) | anxiety (Dugesia japonica [14]) | hyperkinesis incidence (Dugesia japonica [15]) | resting fraction in dark (Dugesia japonica [16]) | speed second 30 s blue light (Dugesia japonica [17]) | total locomotor bursts minus vehicle (Dugesia japonica [18])
1 | O=C(CCCN1CCC(O)(c2ccc(Cl)cc2)CC1)c1ccc(F)cc1 [haloperidol] (100 µM) | 0 | 13 | 4.17 | -19.3 | 38.1 | 30.8 | 0 | -66.9 | 34.8 | 0 | -69.3 | 28.6 | ≤ 0 | 1.65 | 19 | 48.4 | -68.8 | 25
2 | CN1CCN(CCCN2c3ccccc3Sc3ccc(Cl)cc32)CC1 [prochloroperazine] (10 µM) | 12.5 | 50 | 25 | -55.5 | 37.5 | 52.9 | 4.17 | -74.9 | 66.7 | 0 | -81.4 | 0 | 4.17 | 21.9 | 25 | 38.3 | -85.8 | 12.5
3 | O=C(O)C(=O)O [oxalic acid] (100 µM) | 0 | ≤ 0 | 0 | -11.5 | 12.5 | 1.86 | 0 | -6.93 | 8.33 | 0 | -25.2 | 0 | ≤ 0 | 24.9 | 12.5 | -1.66 | -8.31 | 6.5
4 | O=C1CC2(CCCC2)CC(=O)N1CCCCN1CCN(c2ncccn2)CC1 [buspirone] (3.16 µM) | 0 | 16.7 | 0 | -34.1 | 8.33 | 8.98 | 0 | 8.61 | ≤ 0 | 0 | -21.3 | 0 | 4.17 | -2.65 | 8.33 | 4.15 | -34.4 | 4.25
5 | O=C1CCc2ccc(OCCCCN3CCN(c4cccc(Cl)c4Cl)CC3)cc2N1 [aripiprazole] (3.16 µM) | 0 | 45.8 | 0 | 0.14 | 4.17 | 0.05 | 0 | 27.4 | 4.17 | 0 | 18.9 | 0 | ≤ 0 | 0.35 | 4.17 | -2.43 | 8.71 | -2.5
6 | CCCCNc1c(C(=O)OCC)c(C)nc2c1cnn2CC [tracazolate hydrochloride] (100 µM) | 87.5 | 12.5 | 0 | -63.6 | 91.7 | 59 | 4.17 | -83.4 | 29.2 | 8.33 | -91.5 | 12.5 | ≤ 0 | -79.8 | 70.8 | 61.7 | -91.7 | 81.5
7 | O=C(CCCN1CCC(O)(c2ccc(Br)cc2)CC1)c1ccc(F)cc1 [bromperidol] (10 µM) | 0 | ≤ 0 | 25 | -32.1 | 66.7 | 38 | 4.76 | -40.7 | 47.6 | 0 | -49.8 | 42.9 | ≤ 0 | 7.64 | 52.4 | 50.5 | -60.1 | 8
8 | O=C(CCCN1CC=C(n2c(=O)[nH]c3ccccc32)CC1)c1ccc(F)cc1 [droperidol] (3.16 µM) | 12.5 | 45.8 | 0 | -42.7 | 50 | 66.1 | 16.7 | -77.5 | 66.7 | 0 | -90.1 | 8.33 | 8.33 | -4.16 | 37.5 | 62.6 | -89.6 | 18.8
